Test results taken from patent US20120010205A1, “NOVEL QUINOLINE ESTERS USEFUL FOR TREATING SKIN DISORDERS” (Wyeth LLC, priority 2010, published 2012).
pEC50, pIC50: −log10 of the molar value.

Tests used:
ABCG1 [1] = test: Gene regulation by LXR: ABCG1, KERTr (serum-free); type: cell-based
hLXRa = target: T1, hLXRa (Homo sapiens, UniProt Q13133); test: hLXRa binding
T1 sequence (Q13133 1-447): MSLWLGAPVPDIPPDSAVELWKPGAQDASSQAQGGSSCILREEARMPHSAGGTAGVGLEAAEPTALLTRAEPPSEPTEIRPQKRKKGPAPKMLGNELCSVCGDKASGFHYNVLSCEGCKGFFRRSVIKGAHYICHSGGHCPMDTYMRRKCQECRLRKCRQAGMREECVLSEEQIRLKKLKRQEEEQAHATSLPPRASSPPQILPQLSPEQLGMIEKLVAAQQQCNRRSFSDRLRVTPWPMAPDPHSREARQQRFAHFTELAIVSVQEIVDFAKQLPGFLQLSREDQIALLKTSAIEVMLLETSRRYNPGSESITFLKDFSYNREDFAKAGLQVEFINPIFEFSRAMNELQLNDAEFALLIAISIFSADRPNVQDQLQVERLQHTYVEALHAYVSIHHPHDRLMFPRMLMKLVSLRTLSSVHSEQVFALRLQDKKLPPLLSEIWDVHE

human LXRβ = target: T2, human LXRβ (Homo sapiens, UniProt P55055); test: Ligand-binding test procedure for human LXRβ (3H T0901317 tracer, flash plates); conditions: read-out: hLXRb binding IC50
T2 construct: made in house; host or cells: E. coli
T2 sequence (P55055 1-460): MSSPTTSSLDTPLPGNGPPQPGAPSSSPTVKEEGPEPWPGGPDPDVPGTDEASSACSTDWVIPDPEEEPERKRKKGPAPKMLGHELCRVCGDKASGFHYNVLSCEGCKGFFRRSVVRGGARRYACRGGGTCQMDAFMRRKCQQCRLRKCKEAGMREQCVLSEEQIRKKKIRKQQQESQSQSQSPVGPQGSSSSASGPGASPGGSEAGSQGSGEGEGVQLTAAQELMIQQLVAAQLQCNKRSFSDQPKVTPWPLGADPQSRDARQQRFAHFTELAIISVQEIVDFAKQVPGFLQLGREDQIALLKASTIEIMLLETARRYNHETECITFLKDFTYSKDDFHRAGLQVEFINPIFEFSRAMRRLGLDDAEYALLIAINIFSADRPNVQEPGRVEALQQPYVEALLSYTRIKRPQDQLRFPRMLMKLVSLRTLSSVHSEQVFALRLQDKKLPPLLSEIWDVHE
Description: LIGAND-BINDING TEST PROCEDURE FOR HUMAN LXRβ.
Buffer: 100 mM KCl, 100 mM TRIS (pH 7.4 at +4° C.), 8.6% glycerol, 0.1 mM PMSF*, 2 mM MTG*, 0.2% CHAPS (* not used in wash buffer)
Receptor source: E. coli extracted from cells expressing biotinylated hLXRβ. Extract was made in a similar buffer as above, but with 50 mM TRIS.
Washed streptavidin and coated flash plates with wash buffer. Diluted receptor extract to give Bmax˜4000 cpm and add to the wells. Wrapped the plates in aluminum foil and stored them at +4° C. overnight.
Made a dilution series in DMSO of the test ligands. Made a 5 nM solution of the radioactive tracer in buffer. Mixed 250 μL diluted tracer with 5 μL of the test ligand from each concentration of the dilution series. Washed the receptor-coated flash plates. Added 200 μL per well of the ligand/radiolabel mixture to the receptor-coated flash plates. Wrapped the plates in aluminum foil and incubate at +4° C. over night.
Aspirated wells, and washed the flashed plates. Sealed the plate. Measured the remaining radioactivity in the plate.

ABCG1 [2] = test: Gene regulation by LXR: ABCG1, human foreskin fibroblasts (serum-free); type: cell-based

Structure (SMILES) | pEC50 (ABCG1 [1]) | pIC50 (hLXRa) | pIC50 (human LXRβ) | pEC50 (ABCG1 [2]) | pEC50 (ABCG1 [2]; Fibroblast)
Cc1ccc(S(C)(=O)=O)cc1C(=O)Oc1cccc(-c2c(C)cnc3c(C(F)(F)F)cccc23)c1 [Example 27, 3-[3-methyl-8-(trifluormethyl)quinolin-4-yl]phenyl 2-methyl-5-(methylsulfonyl)benzoate] | 7.00 | 6.85 | 7.46 | 7.60 | –
Cc1cnc2c(C(F)(F)F)cccc2c1-c1cccc(OC(=O)c2cc(S(C)(=O)=O)ccc2Cl)c1 [Example 28, 3-[3-methyl-8-(trifluoromethyl)quinolin-4-yl]phenyl 2-chloro-5-(methylsulfonyl)benzoate] | 6.67 | 6.98 | 7.72 | – | 7.17
Cc1cnc2c(C(F)(F)F)cccc2c1-c1cccc(OC(=O)c2ccc(S(C)(=O)=O)cc2)c1 [Example 29, 3-[3-methyl-8-(trifluoromethyl)quinolin-4-yl]phenyl 4-(methylsulfonyl)benzoate] | 6.78 | 6.81 | 7.47 | – | 6.60
Cc1ccc(S(=O)(=O)N(C)C)cc1C(=O)Oc1cccc(-c2c(C)cnc3c(C(F)(F)F)cccc23)c1 [Example 30, 3-[3-methyl-8-(trifluoromethyl)quinolin-4-yl]phenyl 5-(dimethylsulfamoyl)-2-methylbenzoate] | 6.86 | 6.35 | 6.63 | – | 6.79
CCS(=O)(=O)c1cccc(C(=O)Oc2cccc(-c3c(-c4ccccc4)cnc4c(Cl)cccc34)c2)c1 [Example 32, 3-(8-chloro-3-phenylquinolin-4-yl)phenyl 3-(ethylsulfonyl)benzoate] | 8.54 | 8.10 | 8.52 | – | 8.17
CC(C)c1cnc2c(Cl)cccc2c1-c1cccc(OC(=O)c2cccc(S(=O)(=O)N3CCOCC3)c2)c1 [Example 37, 3-(8-chloro-3-isopropylauinolin-4-yl)phenyl 3-(morpholin-4-ylsulfonyl)benzoate] | 8.62 | 6.69 | 7.16 | 7.22 | –
Cc1ccc(S(=O)(=O)N2CCOCC2)cc1C(=O)Oc1cccc(-c2c(C(C)C)cnc3c(Cl)cccc23)c1 [Example 38, 3-(8-chloro-3-isopropylquinolin-4-yl)phenyl 2-methyl-5-(morpholin-4-ylsulfonyl)benzoate] | 9.21 | 6.18 | 6.30 | – | 7.36

Now from value to molecule, other results behind:

pEC50 (ABCG1 [1]) | pIC50 (hLXRa) | pIC50 (human LXRβ) | Structure (SMILES) | pEC50 (ABCG1 [2]) | pEC50 (ABCG1 [2]; Fibroblast)
8.08 | 7.82 | 8.33 | CC(C)c1cnc2c(Cl)cccc2c1-c1cccc(OC(=O)c2cccc(S(=O)(=O)N(C)C)c2)c1 [Example 33, 3-(8-chloro-3-isopropylauinolin-4-yl)phenyl 3-(dimethylsulfamoyl)benzoate] | – | 7.26
8.86 | 6.73 | 7.19 | CC(C)c1cnc2c(Cl)cccc2c1-c1cccc(OC(=O)c2ccc(S(=O)(=O)N(C)C)cc2)c1 [Example 34, 3-(8-chloro-3-isopropylquinolin-4-yl)phenyl 4-(dimethylsulfamoyl)benzoate] | – | 7.11
9.28 | 8.06 | 8.25 | CC(C)c1cnc2c(Cl)cccc2c1-c1cccc(OC(=O)c2cccc(CS(C)(=O)=O)c2)c1 [Example 35, 3-(8-chloro-3-isopropylauinolin-4-yl)phenyl 3-[(methylsulfonyl)methyl]benzoate] | 7.96 | –
9.40 | 8.04 | 8.38 | CNS(=O)(=O)c1cccc(C(=O)Oc2cccc(-c3c(C(C)C)cnc4c(Cl)cccc34)c2)c1 [Example 36, 3-(8-chloro-3-isopropylquinolin-4-yl)phenyl 3-(methylsulfamoyl)benzoate] | – | 8.10
